Laboratory results published in patent publication US20100190843A1, “Tubulin Isotype Screening in Cancer Therapy Using Halichondrin B Analogs” (Eisai R&D Management Co., Ltd., priority 2004, published 2010).

Legend:
[1] = test system: panel of 19 human breast cancer cell lines; experiment: Cell growth inhibition assay, whole panel; assay type: cell-based
From the text: (§1) The following human breast cancer cell lines were obtained from the ATCC. Cells were maintained according to ATCC-recommended culture conditions. AU565 (ATCC Catalog No. ATCC Catalog No. CRL-2351), BT-20 (ATCC Catalog No. HTB-19), MCF7 (ATCC Catalog No. HTB22), MDA-MB-231 (ATCC Catalog No. HTB-26), MDA-MB-435 (ATCC Catalog No. HTB-129), MDA-MB-468 (ATCC Catalog No. HTB-132), HCC38 (ATCC Catalog No. CRL-2314), HCC70 (ATCC Catalog No. CRL-2315), HCC1143 (ATCC Catalog No. CRL-2321), HCC1428 (ATCC Catalog No. CRL-2327), HCC1500 (ATCC Catalog No. CRL-2329), HCC1806 (ATCC Catalog No. CRL-2335), HCC1954 (ATCC Catalog No. CRL-2338), HCC2218 (ATCC Catalog No. CRL-2343), UACC-812 (ATCC Catalog No. CRL-1897), UACC-893 (ATCC Catalog No. CRL-1902), ZR-75-1 (ATCC Catalog No. CRL-1500), ZR-75-30 (ATCC Catalog No. CRL-1504).
Cultured human breast cancer cells were placed in 96-well plates and grown in the continuous presence of test compounds for 4 or 7 days. […] Cell growth was assessed using modifications (Amin et al., Cancer Res., 47:6040-6045, 1987; incorporated herein by reference) of a methylene blue-based microculture assay (Finlay et al., Anal. Biochem., 139:272-277, 1984; incorporated herein by reference).
Antiproliferative effects of four tubulin-binding anticancer agents were evaluated by a methylene blue-based cell growth inhibin assay in a panel of 19 human breast cancer cell lines. […]

ZR-75-1 = experiment: Cell growth inhibition assay (methylene blue-based); conditions: Homo sapiens, continuous exposure 4 or 7 days, at least three experiments
From the text: as §1
(§2) Cultured human breast cancer cells were placed in 96-well plates and grown in the continuous presence of test compounds for 4 or 7 days. To expose the cells to test compounds for 7 days, medium was replaced with fresh medium containing compounds after 4 days of exposure and cells were incubated for 3 additional days. Cell growth was assessed using modifications (Amin et al., Cancer Res., 47:6040-6045, 1987; incorporated herein by reference) of a methylene blue-based microculture assay (Finlay et al., Anal. Biochem., 139:272-277, 1984; incorporated herein by reference).
(§3) To investigate the possible expression of PgP by the cell lines used in this study, the antiproliferative effects of paclitaxel were determined in the presence and absence of verapamil, a known inhibitor of PgP.

UACC-812 = experiment: as above; conditions: Homo sapiens, continuous exposure 4 or 7 days, at least three experiments
From the text: as §1, §2, §3

HCC1500 = experiment: as above; conditions: Homo sapiens, continuous exposure 4 or 7 days, at least three experiments
From the text: as §1, §2, §3

HCC38 = experiment: as above; conditions: Homo sapiens, continuous exposure 4 or 7 days, at least three experiments
From the text: as §1, §2, §3

HCC1806 = experiment: as above; conditions: Homo sapiens, continuous exposure 4 or 7 days, at least three experiments
From the text: as §1, §2, §3

MDA-MB-435 = experiment: as above; conditions: Homo sapiens, continuous exposure 4 or 7 days, at least three experiments
From the text: as §1, §2, §3

HC-2218 = experiment: as above; conditions: Homo sapiens, continuous exposure 4 or 7 days, at least three experiments
From the text: as §1, §2, §3

MCF-7 = experiment: as above; conditions: Homo sapiens, MCF7, continuous exposure 4 or 7 days, at least three experiments
From the text: as §1, §2, §3

MDA-MB-231 = experiment: as above; conditions: Homo sapiens, continuous exposure 4 or 7 days, at least three experiments
From the text: as §1, §2, §3

UACC-893 = experiment: as above; conditions: Homo sapiens, continuous exposure 4 or 7 days, at least three experiments
From the text: as §1, §2, §3

BT-20 = experiment: as above; conditions: Homo sapiens, continuous exposure 4 or 7 days, at least three experiments
From the text: as §1, §2, §3

HCC1954 = experiment: as above; conditions: Homo sapiens, continuous exposure 4 or 7 days, at least three experiments
From the text: as §1, §2, §3

HCC1143 = experiment: as above; conditions: Homo sapiens, continuous exposure 4 or 7 days, at least three experiments
From the text: as §1, §2, §3

AU565 = experiment: as above; conditions: Homo sapiens, continuous exposure 4 or 7 days, at least three experiments
From the text: as §1, §2, §3

MDA-MB-468 = experiment: as above; conditions: Homo sapiens, continuous exposure 4 or 7 days, at least three experiments
From the text: as §1, §2, §3

ZR-75-30 = experiment: as above; conditions: Homo sapiens, continuous exposure 4 or 7 days, at least three experiments
From the text: as §1, §2, §3

HCC70 = experiment: as above; conditions: Homo sapiens, continuous exposure 4 or 7 days, at least three experiments
From the text: as §1, §2, §3

HCC1428 = experiment: as above; conditions: Homo sapiens, continuous exposure 4 or 7 days, at least three experiments
From the text: as §1, §2, §3

HCC1419 = experiment: as above; conditions: Homo sapiens, continuous exposure 4 or 7 days, at least three experiments

IC50 ([1]; Homo sapiens, range over the panel of 19 cell lines): 0.29 to 1.8 nM | fold-difference between IC50's in the most sensitive and the least sensitive cell line ([1]; panel of 19 breast cancer cell lines): 6.2 fold | IC50 (HCC1500): 0.56 nM | IC50 (HCC38): 0.4 nM | IC50 (HCC1806): 0.74 nM | IC50 (MDA-MB-435): 0.29 nM | IC50 (MCF-7): 1.45 nM | IC50 (MDA-MB-231): 1.75 nM | IC50 (BT-20): 0.82 nM | IC50 (HCC1954): 0.37 nM | IC50 (HCC1143): 0.43 nM | IC50 (MDA-MB-468): 0.45 nM | IC50 (HCC1428): 0.53 nM | IC50 (HCC1419): 1.59 nM
SMILES: C=C1C[C@@H]2CC[C@@]34C[C@H]5O[C@H]6[C@@H](O3)C3O[C@H](CCC3O[C@H]6C5O4)CC(=O)CC3[C@H](CC4O[C@@H](CCC1O2)C[C@@H](C)C4=C)O[C@H](C[C@H](O)CN)[C@@H]3OC (stereo partly drawn) [E7389]
IC50 (ZR-75-1): 1.19 nM | IC50 (UACC-812): 1.17 nM | IC50 (HC-2218): 1.14 nM | IC50 (UACC-893): 0.31 nM | IC50 (AU565): 0.65 nM | IC50 (ZR-75-30): 1.8 nM | IC50 (HCC70): 0.63 nM
